Results reported in patent US20170196954A1, “PRIME-BOOST REGIMENS WITH A TLR4 AGONIST ADJUVANT AND A LENTIVIRAL VECTOR” (priority 2014, published 2017).

Assays:
HSV = details: continuous suppressive administration, early intervention; cited from earlier work
[1] = system: patients and healthy volunteers; details: over 900 patients and healthy volunteers
Description: GLA is a fully synthetic TLR4 agonist, which has been examined in over 900 patients and healthy volunteers as an adjuvant with NY-ESO-1 protein and with infectious agent antigens such as in flu vaccines. […] A higher Mug dose cohort is currently being examined in this Phase 1 trial.

SMILES	reduction of HSV transmission (HSV)	safety profile [1]
CC(C)[C@H](N)C(=O)OCCOCn1cnc2c(=O)[nH]c(N)nc21 [Valacyclovir]	less than 50%	
CCCCCCCCCCCCCC(=O)O[C@H](CCCCCCCCCCC)CC(=O)O[C@@H]1[C@@H](NC(=O)C[C@H](CCCCCCCCCCC)OC(=O)CCCCCCCCCCCCC)[C@H](OC[C@H]2O[C@H](O)[C@H](NC(=O)C[C@H](O)CCCCCCCCCCC)[C@@H](OC(=O)C[C@H](O)CCCCCCCCCCC)[C@@H]2O)O[C@H](CO)[C@H]1OP(=O)(O)O [GLA, glucopyranosyl lipid A]		established safety profile
